According to PMC7180728, “Novel Anthraquinone Compounds Inhibit Colon Cancer Cell Proliferation via the Reactive Oxygen Species/JNK Pathway” (Molecules, 2020):
Converted amounts (≈) assume the structure as drawn. Where two headings read alike, the source gives them in different places. Residues, ends and D or L forms follow the SMILES beside them. *: point of attachment. Cbz = O=C(OCc1ccccc1)*; CH2F = FC*

Legend:
[1] = set-up: method as in PMID 27111664, PMID 28811348; details: background statement, no own measurement; cited from earlier work
FHC = test: MTT cell proliferation assay, normal colorectal cells FHC; format: cell-based; details: FHC normal human colorectal mucosa, 48 h
Description: (§1) The effects of the synthesized amide anthraquinone derivatives on the proliferative activity of eight human cancerous cell lines (EC9706, MCF-7, SGC-7901, HepG2, QBC939, HeLa, HCT116 and SW480) in addition to two normal human cell lines (colorectal FHC and liver HL7702) were evaluated using the standard MTT assay.
(§2) The human esophageal cancer cell line EC9706 was obtained from Cancer Hospital and Institute by Prof. Ming Rong Wang, Chinese Academy Medical of Sciences. The human colorectal carcinoma cell lines HCT116 and SW480, hepatoma cell line HepG2, cervical carcinoma cell line HeLa, breast cancer cell line MCF-7, gastric cancer cell line SGC-7901, cholangiocarcinoma cell line QBC939, normal fetal colon cell line FHC and liver cell line HL-7702 were obtained from the Cell Bank of the Shanghai Chinese Academy of Sciences. All cells were cultured in RPMI 1640 medium containing 100 U/mL penicillin and streptomycin and 10% fetal bovine serum and maintained at 37°C under a 5% CO2 atmosphere.
(§3) We analyzed the inhibitory effects of eight anthraquinone-amino acid derivatives on the proliferation of eight tumor cell lines and two normal cell lines in vitro using MTT assays. Cells were added to a 96-well plate with (5,000 cells per well in 100 µL RPMI-1640 medium). Cells were treated with different concentrations (10–100 μg/mL) of 8a–8h for 48 h and then incubated with 20 μL MTT (5 mg/mL) for another 4 h at 37°C. DMSO (150 μL) was then added to each well to dissolve the formazan crystals. The absorbance of each well was read at 490 nm on a microtiter plate ELISA reader. The mean values were obtained from a minimum of three parallel experiments. IC50 values were calculated.

SW480 = test: MTT cell proliferation assay, SW480; format: cell-based; details: Homo sapiens, SW480 colon cancer, 48 h
Description: as §1, §2, §3

HL-7702 = test: MTT cell proliferation assay, normal liver cells HL-7702; format: cell-based; details: L02, HL-7702 normal human hepatocyte, 48 h
Description: as §1, §2, §3

MCF-7 = test: MTT cell proliferation assay, MCF-7; format: cell-based; details: Homo sapiens, MCF7, MCF-7 breast cancer, 48 h
Description: as §1, §2, §3

QBC939 = test: MTT cell proliferation assay, QBC939; format: cell-based; details: Homo sapiens, QBC939 cholangiocarcinoma, 48 h
Description: as §1, §2, §3

HepG2 = test: MTT cell proliferation assay, HepG2; format: cell-based; details: Homo sapiens, HepG2 liver cancer, 48 h
Description: as §1, §2, §3

EC9708 = test: MTT cell proliferation assay, EC9706 (Table 1: EC9708); format: cell-based; details: Homo sapiens, EC9708 esophageal cancer, 48 h
Description: as §1, §2, §3

SGC-7901 = test: MTT cell proliferation assay, SGC-7901; format: cell-based, human; details: SGC-7901 gastric cancer
Description: as §1, §2, §3

HeLa = test: MTT cell proliferation assay, HeLa; format: cell-based; details: Homo sapiens, HeLa cervical cancer, 48 h
Description: as §1, §2, §3

HCT116 = test: MTT cell proliferation assay, HCT116; format: cell-based, human; details: for IC50: Homo sapiens, HCT-116, HCT116 colon cancer, 48 h
Description: as §1, §2, §3

HCT116 cells = test: MTT cell viability with or without zVAD-FMK; format: cell-based, human; details: zVAD-FMK 5 mM alone, 24 h
Source text: Caspases represent a key molecular group in the regulation of apoptosis. In caspases, there is an upstream and downstream relationship between the initiator of apoptosis and executioner. Caspase 3 is one of the key executers of apoptosis, as it is either partially or totally responsible for the proteolytic cleavage of many key proteins. For example, when caspase 9 is activated, it activates caspase 3, which ultimately triggers cell apoptosis. After detecting the expression of the corresponding Bcl-2 family proteins after 8a treatment by western blotting, we went on to detect the expression levels of PARP, caspase 9, cleaved caspase 9, caspase 3, and cleaved caspase 3 proteins. […] After 24 h of treatment with zVAD-FMK, cell viability is 93%.
Figure 7 Effect of 8a on apoptosis-related protein expression. […] PARP, caspase 3, cleaved caspase 3, caspase 9, cleaved caspase 9, Bcl-2, phosphorylated Bcl-2, Bcl-XL, phosphorylated Bcl-xL and Bax were detected by western blot analysis; β-actin was used as a loading control in each lane. Representative data of three independent experiments are shown; (C) and (D) Grayscale analysis of the relative expression of apoptosis-related proteins detected by Western blotting. […] (E) Cells were exposed to 8a (20 μg/mL) and/or zVAD-FMK ([…]) for 24 h, and cell viability was measured by MTT assay. […]

[2] = set-up: method as in earlier work; details: cell line not given; compared with 8b 27.87 μg/mL; cited from earlier work
[3] = set-up: method as in PMID 24096626; details: on entering the bloodstream; cited from earlier work
[4] = Homo sapiens, SGC-7901, 48 h, read-out: IC50

| IC50 (SW480) | IC50 (MCF-7) | IC50 (HepG2) | IC50 (SGC-7901; [4]) | IC50 (SGC-7901; 48 h) | IC50 (HeLa) | IC50 (HCT116) | melting point | Compound | water solubility [1] | IC50 (FHC) | IC50 (HL-7702) | IC50 (QBC939) | IC50 (EC9708) | cell viability (HCT116 cells) | IC50 [2] | fraction bound to plasma proteins [3] | proliferation of HCT116 cells (in words) (HCT116) |
| --- | --- | --- | --- | --- | --- | --- | --- | --- | --- | --- | --- | --- | --- | --- | --- | --- | --- |
| 60.49 ± 0.07 µg/mL (≈ 153 µM) | 31.31 ± 0.13 µg/mL (≈ 79.4 µM) | 49.07 ± 0.08 µg/mL (≈ 124 µM) | 60.5 µg/mL (≈ 153 µM) | 72.31 ± 0.33 µg/mL (≈ 183 µM) | 48.82 ± 0.13 µg/mL (≈ 124 µM) | 35.03 ± 0.25 µg/mL (≈ 88.8 µM) | – | O=C1c2ccccc2C(=O)c2c1ccc(C(=O)N1CCCC1C(=O)O)c2[N+](=O)[O-] (stereo not shown) [Compound 8e] | – | > 1000 µg/mL | > 1000 µg/mL | 37.73 ± 0.23 µg/mL (≈ 95.7 µM) | 47.35 ± 0.21 µg/mL (≈ 120 µM) | – | – | – | – |
| 158.37 ± 0.04 µg/mL (≈ 370 µM) | 275.52 ± 0.07 µg/mL (≈ 643 µM) | 520.52 ± 0.22 µg/mL (≈ 1210 µM) | 235.81 ± 0.02 µg/mL (≈ 550 µM) | – | 122.52 ± 0.05 µg/mL (≈ 286 µM) | 86.49 ± 0.02 µg/mL (≈ 202 µM) | – | CSCCC(NC(=O)c1ccc2c(c1[N+](=O)[O-])C(=O)c1ccccc1C2=O)C(=O)O (stereo not shown) [Compound 8g] | – | > 1000 µg/mL | > 1000 µg/mL | 290.94 ± 0.05 µg/mL (≈ 679 µM) | 300.18 ± 0.11 µg/mL (≈ 701 µM) | – | – | – | significantly inhibited |
| 43.08 ± 0.05 µg/mL (≈ 122 µM) | 26.87 ± 0.06 µg/mL (≈ 75.8 µM) | 40.11 ± 0.02 µg/mL (≈ 113 µM) | 60.83 ± 0.12 µg/mL (≈ 172 µM) | – | 28.7 ± 0.17 µg/mL (≈ 81 µM) | 27.75 ± 0.11 µg/mL (≈ 78.3 µM) | – | O=C(O)CNC(=O)c1ccc2c(c1[N+](=O)[O-])C(=O)c1ccccc1C2=O [Compound 8d] | – | > 1000 µg/mL | > 1000 µg/mL | 36.71 ± 0.04 µg/mL (≈ 104 µM) | 41.47 ± 0.14 µg/mL (≈ 117 µM) | – | – | – | – |
| 119.93 ± 0.03 µg/mL (≈ 281 µM) | 546.68 ± 0.31 µg/mL (≈ 1280 µM) | 467.74 ± 0.06 µg/mL (≈ 1100 µM) | 200.35 ± 0.05 µg/mL (≈ 470 µM) | – | 334.28 ± 0.04 µg/mL (≈ 784 µM) | 100.38 ± 0.04 µg/mL (≈ 235 µM) | – | O=C(O)CCC(NC(=O)c1ccc2c(c1[N+](=O)[O-])C(=O)c1ccccc1C2=O)C(=O)O (stereo not shown) [Compound 8h] | – | > 1000 µg/mL | > 1000 µg/mL | 112.02 ± 0.03 µg/mL (≈ 263 µM) | 112.41 ± 0.03 µg/mL (≈ 264 µM) | – | – | – | significantly inhibited |
| 39.5 ± 0.31 µg/mL (≈ 88.9 µM) | 28.26 ± 0.13 µg/mL (≈ 63.6 µM) | 58.34 ± 0.22 µg/mL (≈ 131 µM) | 61.6 ± 0.14 µg/mL (≈ 139 µM) | – | 25.94 ± 0.22 µg/mL (≈ 58.4 µM) | 30.12 ± 0.02 µg/mL (≈ 67.8 µM) | > 250 °C | O=C1c2ccccc2C(=O)c2c1ccc(C(=O)NC(Cc1ccccc1)C(=O)O)c2[N+](=O)[O-] (stereo not shown) [Compound 8c] | – | > 1000 µg/mL | > 1000 µg/mL | 34.2 ± 0.42 µg/mL (≈ 77.1 µM) | 30.24 ± 0.23 µg/mL (≈ 68 µM) | – | – | – | – |
| 42.4 ± 0.68 µg/mL (≈ 107 µM) | 30.81 ± 0.05 µg/mL (≈ 77.7 µM) | 44 ± 0.53 µg/mL (≈ 111 µM) | 67.98 ± 0.18 µg/mL (≈ 172 µM) | – | 27.87 ± 0.22 µg/mL (≈ 70.3 µM) | 21 ± 0.38 µg/mL (≈ 53 µM) | – | CC(C)C(NC(=O)c1ccc2c(c1[N+](=O)[O-])C(=O)c1ccccc1C2=O)C(=O)O (stereo not shown) [Compound 8b, 1-nitro-2-acyl-anthraquinone valine] | – | > 1000 µg/mL | > 1000 µg/mL | 72.88 ± 0.16 µg/mL (≈ 184 µM) | 38.94 ± 0.02 µg/mL (≈ 98.2 µM) | – | – | – | – |
| 155.38 ± 0.14 µg/mL (≈ 422 µM) | 342.19 ± 0.22 µg/mL (≈ 929 µM) | 296.42 ± 0.21 µg/mL (≈ 805 µM) | 165.3 ± 0.21 µg/mL (≈ 449 µM) | – | 241.31 ± 0.13 µg/mL (≈ 655 µM) | 98.43 ± 0.13 µg/mL (≈ 267 µM) | – | CC(NC(=O)c1ccc2c(c1[N+](=O)[O-])C(=O)c1ccccc1C2=O)C(=O)O (stereo not shown) [Compound 8f] | – | > 1000 µg/mL | > 1000 µg/mL | 357.52 ± 0.08 µg/mL (≈ 971 µM) | 257.31 ± 0.2 µg/mL (≈ 699 µM) | – | – | – | significantly inhibited |

Second part, the molecule before the results:

| Compound | IC50 (SW480) | IC50 (MCF-7) | IC50 (HepG2) | IC50 (SGC-7901; [4]) | IC50 (SGC-7901; 48 h) | IC50 (HeLa) | IC50 (HCT116) | melting point | water solubility [1] | IC50 (FHC) | IC50 (HL-7702) | IC50 (QBC939) | IC50 (EC9708) | cell viability (HCT116 cells) | IC50 [2] | fraction bound to plasma proteins [3] | proliferation of HCT116 cells (in words) (HCT116) |
| --- | --- | --- | --- | --- | --- | --- | --- | --- | --- | --- | --- | --- | --- | --- | --- | --- | --- |
| Cc1cc(O)c2c(c1)C(=O)c1cc(O)cc(O)c1C2=O [Emodin, emodin] | – | – | – | – | – | – | – | – | poor | – | – | – | – | – | – | – | – |
| COC(=O)C[C@H](NC(=O)[C@H](C)NC(=O)[C@@H](NC(=O)OCc1ccccc1)C(C)C)C(=O)CF [zVAD-FMK, reference compound] (Cbz-Val-Ala-Asp(OMe)-CH2F) | – | – | – | – | – | – | – | – | – | – | – | – | – | 93% | – | – | – |
| CC(C)C(NC(=O)c1cc(O)c2c(c1)C(=O)c1cccc(O)c1C2=O)C(=O)O (stereo not shown) [rhein valine] | – | – | – | – | – | – | – | – | – | – | – | – | – | – | 33.51 µg/mL (≈ 87.4 µM) | – | – |
| O=C1c2c(O)ccc(O)c2C(=O)c2c(NCCNCCO)ccc(NCCNCCO)c21 [MX, mitoxantrone] | – | – | – | – | – | – | – | – | – | – | – | – | – | – | – | > 95% | – |
